According to PMC4229119, “Alzheimer's Therapeutics Targeting Amyloid Beta 1–42 Oligomers II: Sigma-2/PGRMC1 Receptors Mediate Abeta 42 Oligomer Binding and Synaptotoxicity” (PLoS ONE, 2014):

Tests used:
[1] = molecular target: T1, sigma-2/PGRMC1 receptors in human brain (Homo sapiens, UniProt Q5BJF2); experiment: Quantitative autoradiography, radioligand displacement from human frontal cortex sections; settings: serial sections of unfixed frozen cognitively normal elderly human frontal cortex; 10-10,000 nM compound; N = 4; read-out: Ki at the [125I]RHM-1 binding site, human frontal cortex
T1 construct: serial sections of unfixed frozen cognitively normal elderly human frontal cortex; from tissue; host or cells: human frontal cortex, unfixed frozen sections
T1 sequence (Q5BJF2 whole entry): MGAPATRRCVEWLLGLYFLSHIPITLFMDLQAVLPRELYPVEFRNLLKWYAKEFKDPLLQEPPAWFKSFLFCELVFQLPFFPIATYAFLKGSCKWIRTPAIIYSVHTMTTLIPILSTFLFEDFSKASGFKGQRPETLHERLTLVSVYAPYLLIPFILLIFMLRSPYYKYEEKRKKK
Experimental: Quantitative autoradiography studies on frozen unfixed serial tissue sections from normal (N = 4) or Alzheimer's disease (N = 4) postmortem patients' neocortex were conducted and quantified according to previously published procedures [40]. [^3H](+) pentazocine was used as the radioligand for sigma-1 receptors and [^125I]RHM-1 (American Radiolabelled Chemicals, Inc.) or [^3H]DTG (1,3-Di-(2-tolyl)guanidine (Perkin Elmer) in the presence of 1 µM (+) pentazocine for sigma-2 receptors [32]. Human brain samples for these studies were obtained with written consent as previously published [40].

[2] = tested on: mouse models of Alzheimer's disease; design: method as in PMID 25390368; settings: cited from earlier work
Dopamine 3 = molecular target: T2, Dopamine 3 (Homo sapiens, UniProt P35462); experiment: Cerep panel: Dopamine 3 agonist activity; assay type: cell-based; settings: Cerep 0683
T2 construct: purchased Cerep/Eurofins, Inc
T2 sequence (P35462 whole entry): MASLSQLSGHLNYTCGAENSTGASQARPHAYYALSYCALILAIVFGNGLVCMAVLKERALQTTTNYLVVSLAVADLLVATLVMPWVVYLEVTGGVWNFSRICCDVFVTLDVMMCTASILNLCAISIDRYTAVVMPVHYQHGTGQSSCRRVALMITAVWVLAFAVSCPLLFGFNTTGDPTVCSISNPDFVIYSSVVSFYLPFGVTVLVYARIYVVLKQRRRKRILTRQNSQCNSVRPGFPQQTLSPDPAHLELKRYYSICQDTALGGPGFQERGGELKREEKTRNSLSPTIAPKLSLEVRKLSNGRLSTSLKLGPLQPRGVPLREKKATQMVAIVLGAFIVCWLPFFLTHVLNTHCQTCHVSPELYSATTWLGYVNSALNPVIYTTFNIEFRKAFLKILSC
Experimental: (§1) Active CogRx molecules were counterscreened for activity at 100 central nervous system receptors and enzymes (including those involved in neurotransmission and synaptic plasticity) in industry-standard assays measuring radioligand binding displacement and signaling activity (assays performed at Cerep/Eurofins, Inc., Table S1). […] To determine if these compounds were capable of displacing binding to sigma-2/PGRMC1 receptors in human brain, CT0093 and CT0109 were added in increasing concentrations to serial sections of unfixed frozen cognitively normal elderly human frontal cortex in the presence of a specific radioligand for sigma-2/PGRMC1, ^125I-RHM-4 [31] ( Fig. 1 B–D ).

mu opioid = molecular target: T3, mu opioid (Homo sapiens, UniProt P35372); experiment: Cerep panel: mu opioid radioligand binding; settings: Cerep 0118
T3 construct: purchased Cerep/Eurofins, Inc. 0118
T3 sequence (P35372 whole entry): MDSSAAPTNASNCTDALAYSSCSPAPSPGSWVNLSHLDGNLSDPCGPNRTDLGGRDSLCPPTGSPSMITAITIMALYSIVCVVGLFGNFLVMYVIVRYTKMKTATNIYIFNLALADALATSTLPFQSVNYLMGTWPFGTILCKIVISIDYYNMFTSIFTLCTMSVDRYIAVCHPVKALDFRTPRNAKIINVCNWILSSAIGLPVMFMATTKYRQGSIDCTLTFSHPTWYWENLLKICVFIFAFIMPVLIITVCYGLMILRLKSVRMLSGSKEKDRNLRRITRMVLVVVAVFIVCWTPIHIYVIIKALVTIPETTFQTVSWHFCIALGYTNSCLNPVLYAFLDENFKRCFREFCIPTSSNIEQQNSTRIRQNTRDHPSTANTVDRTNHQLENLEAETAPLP
Experimental: as §1

Sigma-1 = molecular target: T4, Sigma-1 (Homo sapiens, UniProt Q99720); experiment: Cerep panel: Sigma-1 radioligand binding; settings: Cerep 0889
T4 construct: purchased Cerep/Eurofins, Inc. 0889
T4 sequence (Q99720 whole entry): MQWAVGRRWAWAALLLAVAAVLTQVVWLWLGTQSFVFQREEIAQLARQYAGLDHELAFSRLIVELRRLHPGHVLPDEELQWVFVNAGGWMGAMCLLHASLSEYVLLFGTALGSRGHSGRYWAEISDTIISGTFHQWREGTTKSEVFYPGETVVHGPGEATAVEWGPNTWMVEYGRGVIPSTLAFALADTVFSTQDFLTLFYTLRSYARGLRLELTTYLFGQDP
Experimental: as §1

[3] = tested on: primary hippocampal/cortical cultures; experiment: Cell death in mature primary neuronal cultures; assay type: cell-based, rat
caspase-3/7 [4] = experiment: Caspase-3/7 activation in primary hippocampal/cortical cultures; assay type: cell-based, rat; settings: for activation of caspase-3/7: primary hippocampal/cortical cultures
Experimental: (§2) Little is known about the functional pharmacology of ligands for the sigma-2/PGRMC1 receptor. […] Finally, we treated hippocampal and cortical cultures with ascending concentrations of SV119 to induce caspase activation, in the presence of 40 µM of each of the sigma-2/PGRMC1 antagonists CT0109, CT0093 and RHM-1 ( Fig. 8E ).

[5] = tested on: SKOV-3 human ovarian cancer cells; experiment: Cell death in SKOV-3 human ovarian cancer cells; assay type: cell-based
sigma-2/PGRMC1 receptor = molecular target: T5, sigma-2/PGRMC1 receptor (Homo sapiens, UniProt Q5BJF2); experiment: Sigma-2 radioligand binding ([3H]DTG competition, Jurkat cell membranes; Cerep 0148); settings: homogenates of a human T cell line; mean ± S.E.M.; read-out: Ki, displacement of selective radioligand [3H]-DTG from sigma-2/PGRMC1 receptor
T5 construct: host or cells: Jurkat cell membranes
T5 sequence (Q5BJF2 whole entry): as the sequence (Q5BJF2 whole entry) above
Experimental: Radioligand competition assays were performed in membranes from Jurkat cells using 5 nM [^3H]1,3-di(2-tolyl) guanidine in the presence of 1 µM (+)-pentazocine with 10 µM haloperidol to define non-specific binding.

Na^+ Channel (site2) = experiment: Cerep panel: Na+ Channel (site2) radioligand binding; settings: Cerep 0169
Experimental: as §1

caspase-3/7 [6] = experiment: SV119-induced caspase-3/7 activation in hippocampal and cortical cultures, co-treatment with antagonists; assay type: cell-based, rat; settings: for block of the activation of caspase-3/7 by SV119: 40 µM antagonist, ascending concentrations of SV119, hippocampal and cortical cultures
Experimental: as §2

synapses = tested on: synapses; design: method as in PMID 25390368; settings: cited from earlier work
caspase-3/7 [7] = experiment: Caspase-3/7 activation in SKOV-3 tumor cell line; assay type: cell-based, human
[8] = tested on: mixed cultures of hippocampal plus cortical neurons and glia; design: method as in PMID 25390368; settings: cited from earlier work
sigma-2/PGRMC1 = experiment: Immunofluorescent sigma-2/PGRMC1 expression in neuronal cultures; assay type: cell-based, rat; settings: for increase of total intensity of sigma-2/PGRMC1 expression in the cell body: 400 nM Abeta oligomers, pooled neurons and glia, vs vehicle
Experimental: To assess the ability of test compounds to prevent the binding of Abeta oligomers, cultures were treated with compounds for 30 minutes, followed by synthetic Abeta 1–42 oligomer preparation treatment for 60 min (total Abeta concentration 0.5 µM, equivalent to Kd concentration). Alternatively, displacement of prebound oligomers was evaluated by adding oligomers 60 min prior to the addition of compounds, followed by additional 30 minutes incubation. Cells were fixed with 3.75% formaldehyde for 15 min, blocked with 5% normal goat serum and 0.5% Triton X-100 and incubated with primary antibodies for Abeta (1 µg/ml 6E10 or 4G8, Covance catalog numbers SIG-39320 and SIG-39330, respectively), MAP-2 (0.2 µg/ml Chemicon), Synaptophysin-1 (1 µg/ml, Anaspec), glial fibrillary acidic protein (GFAP, 1 µg/ml, Thermo-Fisher) and fluorescently labeled secondary antibodies (2 µg/ml, Invitrogen). Images were acquired on a Cellomics VTi automated microscope with a 20X, 0.75 NA objective and analyzed using ThermoFisher/Cellomics Neuronal Profiling bioapplication set to measure punctate labeling of Abeta and synaptophysin-1 along MAP-2 labeled neurites. For each replicate experiment, at least 100 neurons were sampled from 4 replicate wells for each experimental condition (400 to 500 neurons per experimental condition). […]
(§3) Neuronal cultures were treated with either a mixture of 4 siRNAs targeted against PGRMC1 (GUCUAGGUCUUGGAUAAUA, GGUUUUACCUCAAAUCAGA, UUAGAAUGCAUGAUGUGUU, CUUCUAUCUGUAGUUAAAA, catalog number A-095365-00-0050) or a non-targeting sequence (UGGUUUACAUGUUUUCCUA, catalog number D-001910-03-50, Accell, ThermoFisher). siRNA were resuspended to 100 µM in RNase free water, shaken for 1.5 hours at 37°C, diluted in media and applied to cells at 1 or 2 uM for 48 hours prior to addition of Abeta oligomers for 30 minutes. Cultures were then fixed and co-immunolabeled with 6E10 antibody to detect Abeta and antibody to detect PGRMC1 as described above and analyzed via automated image processing as described above. For PGRMC1 measurements, total intensity in cell bodies was measured.

[9] = tested on: hippocampal and cortical neurons; experiment: Abeta binding assay (Abeta oligomer binding to synaptic puncta of cultured neurons); assay type: cell-based, rat
Experimental: To assess the ability of test compounds to prevent the binding of Abeta oligomers, cultures were treated with compounds for 30 minutes, followed by synthetic Abeta 1–42 oligomer preparation treatment for 60 min (total Abeta concentration 0.5 µM, equivalent to Kd concentration). Alternatively, displacement of prebound oligomers was evaluated by adding oligomers 60 min prior to the addition of compounds, followed by additional 30 minutes incubation. […]
as §3, with “measured. […]” for “measured.”

Molecule	concentrations at which cell viability is affected [3]	activation of caspase-3/7 (caspase-3/7 [4])	concentrations at which cell viability is affected [5]	block of the activation of caspase-3/7 by SV119 (caspase-3/7 [6])	activation of caspase-3/7 (caspase-3/7 [7])	dose-dependent cell death [3]	dose-dependent cell death [5]	further results
COc1cc(CCC(C)NCc2ccc(C(F)(F)F)cc2)ccc1O (centres unmarked) [CT0109]	> 100 µM	did not	> 100 µM	significantly blocked the activation of caspase-3/7 by SV119	did not	–	–	Ki [1]: 57 ± 23 nM; restoration of cognitive function [2]: restore cognitive function; EC50 (Dopamine 3): 4100 nM; Ki (mu opioid): 1700 nM; Ki (Sigma-1): 500 nM; Ki (sigma-2/PGRMC1 receptor): 9 ± 7 nM; Ki (Na^+ Channel (site2)): 2000 nM; restoration of synapses (synapses): restore synapses to normal; reversal of Abeta oligomer-mediated trafficking deficits [8]: reverse Abeta oligomer-mediated trafficking deficits
COc1cc2c(cc1OC)CN(CCCCNC(=O)c1cc(C)ccc1OC)CC2 [RHM-1]	> 100 µM	did not	> 100 µM	did not	did not	–	–	–
Non-targeting siRNA: non-targeting sequence UGGUUUACAUGUUUUCCUA, catalog number D-001910-03-50 (further chemistry not given here) [reference compound]	–	–	–	–	–	–	–	reduction in immunocytochemically detectable sigma-2/PGRMC1 protein in neuronal cell body and synaptic puncta (sigma-2/PGRMC1; siRNA 1 or 2 µM, 48 hours, vs untreated cultures): has no effect; reduction in Abeta oligomer binding ([9]; siRNA 1 or 2 µM, 48 hours, then Abeta oligomers 30 minutes, vs untreated cultures): has no effect
Abeta oligomers: synthetic Abeta 1–42 oligomer preparation	–	–	–	–	–	–	–	oligomer-induced caspase activation (caspase-3/7 [4]; 21 DIV primary hippocampal and cortical neuronal cultures, 3–48 hours, up to 28 uM): unable to detect oligomer-induced caspase activation; increase of total intensity of sigma-2/PGRMC1 expression in the cell body (sigma-2/PGRMC1; 24 hours): 13%; increase of total intensity of sigma-2/PGRMC1 expression in the cell body (sigma-2/PGRMC1; 48 hours): 28%; Kd ([9]; specific and saturable binding, read-out: Kd, binding to a single receptor site on neuronal synaptic puncta): 518 ± 41 nM
Fc1ccc(-n2cc(CCCCN3CCC4(CC3)OCc3ccccc34)c3ccccc32)cc1 [siramesine]	–	activated caspase-3/7	–	–	activated caspase-3/7	caused dose-dependent cell death	caused dose-dependent cell death	–
COc1ccc(C)cc1NC(=O)OC1C[C@H]2CCC[C@@H](C1)N2CCCCCCN (some centres unmarked) [SV-119]	–	–	–	–	–	caused dose-dependent cell death	caused dose-dependent cell death	activation of caspase 3/7 (caspase-3/7 [6]; 20 to 80 µM for 24 hours, hippocampal and cortical cells, p<0.05 vs control): induced the activation of caspase 3/7
